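Method: 48-hour compound exposure of cells in 96-well plates, five concentrations, linear interpolation of endpoints. GI50 = concentration required for 50% inhibition of growth. TGI denotes the concentration required for complete inhibition of growth.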
Assays:
Experiment in all cases: NCI tumour cell line growth inhibition, 48 h
UACC-62 melanoma = tested on: UACC-62 melanoma
RXF 393 renal = tested on: RXF 393 renal
MOLT-4 leukemia = tested on: MOLT-4 leukemia
NCI/ADR-RES ovarian = tested on: NCI/ADR-RES ovarian
M14 melanoma = tested on: M14 melanoma
HS 578T breast = tested on: HS 578T breast
SNB-19 CNS = tested on: SNB-19 CNS
OVCAR-5 ovarian = tested on: OVCAR-5 ovarian
MDA-MB-435 = tested on: MDA-MB-435
CAKI-1 renal = tested on: CAKI-1 renal
CCRF-CEM leukemia = tested on: CCRF-CEM leukemia
A549 NSCLC = tested on: A549 NSCLC
SK-MEL-5 melanoma = tested on: SK-MEL-5 melanoma
K-562 leukemia = tested on: K-562 leukemia
COLO 205 colon = tested on: COLO 205 colon
ACHN renal = tested on: ACHN renal
MDA-MB-231 breast = tested on: MDA-MB-231 breast
SK-OV-3 ovarian = tested on: SK-OV-3 ovarian
BT-549 breast = tested on: BT-549 breast
HCC-2998 colon = tested on: HCC-2998 colon
MALME-3M melanoma = tested on: MALME-3M melanoma
HL-60(TB) leukemia = tested on: HL-60(TB) leukemia
HCT-15 colon = tested on: HCT-15 colon
SNB-75 CNS = tested on: SNB-75 CNS
OVCAR-3 ovarian = tested on: OVCAR-3 ovarian
NCI-H226 lung = tested on: NCI-H226 lung
SF-268 CNS = tested on: SF-268 CNS
NCI-H23 lung = tested on: NCI-H23 lung
A498 renal = tested on: A498 renal
MCF7 breast = tested on: MCF7 breast
EKVX NSCLC = tested on: EKVX NSCLC
SF-295 CNS = tested on: SF-295 CNS
NCI-H460 lung = tested on: NCI-H460 lung
OVCAR-8 ovarian = tested on: OVCAR-8 ovarian
SW-620 colon = tested on: SW-620 colon
RPMI-8226 leukemia = tested on: RPMI-8226 leukemia
IGROV1 ovarian = tested on: IGROV1 ovarian
SN12C renal = tested on: SN12C renal
SK-MEL-28 melanoma = tested on: SK-MEL-28 melanoma
SK-MEL-2 melanoma = tested on: SK-MEL-2 melanoma
786-0 renal = tested on: 786-0 renal
KM12 colon = tested on: KM12 colon
HT29 colon = tested on: HT29 colon
U251 CNS = tested on: U251 CNS
UACC-257 melanoma = tested on: UACC-257 melanoma
T-47D breast = tested on: T-47D breast
UO-31 renal = tested on: UO-31 renal
LOX IMVI melanoma = tested on: LOX IMVI melanoma
DU-145 prostate = tested on: DU-145 prostate
HOP-62 NSCLC = tested on: HOP-62 NSCLC
TK-10 renal = tested on: TK-10 renal
NCI-H522 lung = tested on: NCI-H522 lung
OVCAR-4 ovarian = tested on: OVCAR-4 ovarian
PC-3 prostate = tested on: PC-3 prostate
HOP-92 NSCLC = tested on: HOP-92 NSCLC
HCT-116 colon = tested on: HCT-116 colon
SF-539 CNS = tested on: SF-539 CNS
SR leukemia = tested on: SR leukemia

For `Cc1cc2nc(CS)[nH]c2cc1C`, the GI50 (UACC-62 melanoma) was 13.6 µM, the TGI (UACC-62 melanoma) was 28.2 µM and the GI50 (RXF 393 renal) was 17.5 µM. The TGI (RXF 393 renal) was 31.6 µM, the GI50 (MOLT-4 leukemia) was 2.85 µM and the TGI (MOLT-4 leukemia) was 8.53 µM. The GI50 (NCI/ADR-RES ovarian) was 22.8 µM, the TGI (NCI/ADR-RES ovarian) was 95.4 µM and the GI50 (M14 melanoma) was 15.3 µM. It also gave a TGI (M14 melanoma) of 36.8 µM, a GI50 (HS 578T breast) of 23.3 µM and a TGI (HS 578T breast) of 85.5 µM. It also gave a GI50 (SNB-19 CNS) of 27.6 µM, a TGI (SNB-19 CNS) greater than 100 µM and a GI50 (OVCAR-5 ovarian) of 21.4 µM. For the same compound, the TGI (OVCAR-5 ovarian) was 43.5 µM, the GI50 (MDA-MB-435) was 14.4 µM and the TGI (MDA-MB-435) was 28.7 µM. For the same compound, the GI50 (CAKI-1 renal) was 16.9 µM, the TGI (CAKI-1 renal) was 35.9 µM and the GI50 (CCRF-CEM leukemia) was 5.44 µM. The TGI (CCRF-CEM leukemia) was 75.1 µM, the GI50 (A549 NSCLC) was 36.8 µM and the TGI (A549 NSCLC) was greater than 100 µM. It also gave a GI50 (SK-MEL-5 melanoma) of 13.7 µM, a TGI (SK-MEL-5 melanoma) of 27.2 µM and a GI50 (K-562 leukemia) of 22.4 µM. It also gave a TGI (K-562 leukemia) of 67.3 µM, a GI50 (COLO 205 colon) of 23.6 µM and a TGI (COLO 205 colon) of 98.5 µM. For the same compound, the GI50 (ACHN renal) was 15.4 µM, the TGI (ACHN renal) was 30.6 µM and the GI50 (MDA-MB-231 breast) was 20.2 µM. It also gave a TGI (MDA-MB-231 breast) of 50 µM, a GI50 (SK-OV-3 ovarian) of 37.5 µM and a TGI (SK-OV-3 ovarian) greater than 100 µM. It also gave a GI50 (BT-549 breast) of 24.5 µM, a TGI (BT-549 breast) of 66.5 µM and a GI50 (HCC-2998 colon) of 22.9 µM. For the same compound, the TGI (HCC-2998 colon) was 66.2 µM, the GI50 (MALME-3M melanoma) was 13.4 µM and the TGI (MALME-3M melanoma) was 32 µM. The GI50 (HL-60(TB) leukemia) was 12.4 µM, the TGI (HL-60(TB) leukemia) was greater than 100 µM and the GI50 (HCT-15 colon) was 18.6 µM. It also gave a TGI (HCT-15 colon) of 43.7 µM, a GI50 (SNB-75 CNS) of 14.9 µM and a TGI (SNB-75 CNS) of 33.9 µM. The GI50 (OVCAR-3 ovarian) was 14.4 µM, the TGI (OVCAR-3 ovarian) was 27.9 µM and the GI50 (NCI-H226 lung) was 14 µM. For the same compound, the TGI (NCI-H226 lung) was 28.7 µM, the GI50 (SF-268 CNS) was 20.5 µM and the TGI (SF-268 CNS) was 57.5 µM. For the same compound, the GI50 (NCI-H23 lung) was 28.8 µM, the TGI (NCI-H23 lung) was greater than 100 µM and the GI50 (A498 renal) was 18.9 µM. For the same compound, the TGI (A498 renal) was greater than 100 µM, the GI50 (MCF7 breast) was 14.7 µM and the TGI (MCF7 breast) was 31.2 µM. For the same compound, the GI50 (EKVX NSCLC) was 25.1 µM, the TGI (EKVX NSCLC) was greater than 100 µM and the GI50 (SF-295 CNS) was 5.35 µM. The TGI (SF-295 CNS) was 25 µM, the GI50 (NCI-H460 lung) was 18.7 µM and the TGI (NCI-H460 lung) was 54.6 µM. The GI50 (OVCAR-8 ovarian) was 20.2 µM, the TGI (OVCAR-8 ovarian) was 50.6 µM and the GI50 (SW-620 colon) was 13 µM. The TGI (SW-620 colon) was 30.9 µM, the GI50 (RPMI-8226 leukemia) was 14.3 µM and the TGI (RPMI-8226 leukemia) was 40.7 µM. For the same compound, the GI50 (IGROV1 ovarian) was 16.7 µM, the TGI (IGROV1 ovarian) was 34.1 µM and the GI50 (SN12C renal) was 25.1 µM. For the same compound, the TGI (SN12C renal) was 71.3 µM, the GI50 (SK-MEL-28 melanoma) was 15.5 µM and the TGI (SK-MEL-28 melanoma) was 32.2 µM. For the same compound, the GI50 (SK-MEL-2 melanoma) was 15.7 µM, the TGI (SK-MEL-2 melanoma) was 34.7 µM and the GI50 (786-0 renal) was 17.7 µM. The TGI (786-0 renal) was 34.3 µM, the GI50 (KM12 colon) was 15.8 µM and the TGI (KM12 colon) was 32.2 µM. It also gave a GI50 (HT29 colon) of 6.39 µM, a TGI (HT29 colon) of 22.7 µM and a GI50 (U251 CNS) of 14 µM. For the same compound, the TGI (U251 CNS) was 30 µM, the GI50 (UACC-257 melanoma) was 20.9 µM and the TGI (UACC-257 melanoma) was 54 µM. For the same compound, the GI50 (T-47D breast) was 15.6 µM, the TGI (T-47D breast) was 37.5 µM and the GI50 (UO-31 renal) was 14.2 µM. For the same compound, the TGI (UO-31 renal) was 28.1 µM, the GI50 (LOX IMVI melanoma) was 12.7 µM and the TGI (LOX IMVI melanoma) was 30.6 µM. It also gave a GI50 (DU-145 prostate) of 20.8 µM, a TGI (DU-145 prostate) of 48.5 µM and a GI50 (HOP-62 NSCLC) of 15.2 µM. The TGI (HOP-62 NSCLC) was 30.7 µM, the GI50 (TK-10 renal) was 15 µM and the TGI (TK-10 renal) was 29.7 µM. It also gave a GI50 (NCI-H522 lung) of 3.48 µM, a TGI (NCI-H522 lung) of 19.4 µM and a GI50 (OVCAR-4 ovarian) of 13.1 µM. It also gave a TGI (OVCAR-4 ovarian) of 32 µM, a GI50 (PC-3 prostate) of 16.1 µM and a TGI (PC-3 prostate) of 46.4 µM. For the same compound, the GI50 (HOP-92 NSCLC) was 18.8 µM, the TGI (HOP-92 NSCLC) was 76.3 µM and the GI50 (HCT-116 colon) was 14.9 µM. It also gave a TGI (HCT-116 colon) of 29.4 µM, a GI50 (SF-539 CNS) of 20.5 µM and a TGI (SF-539 CNS) of 45 µM. For the same compound, the GI50 (SR leukemia) was 6.69 µM and the TGI (SR leukemia) was 37.6 µM.

From PubChem BioAssay (NCI)
